Assay results published in patent publication US20080107727A1, “Multiple Unit Oral Sustained Release Preparation and Production Method Thereof” (priority 2005, published 2008).

Experiment: Gastrointestinal absorption of imidafenacin in rats, in-situ loop technique
Assay type: in vivo, Male Wistar rats
Conditions: rat in-situ loop, 0.2 mL of 500 μg/mL isotonic solution, after 1 hour
Procedure: In designing oral sustained release preparations of imidafenacin, it is necessary to know the absorption properties of imidafenacin in the gastrointestinal tract. We therefore examined the gastrointestinal absorption properties of imidafenacin in rats using the in-situ loop technique. The specific procedures were as follows: Male Wistar rats (aged 7 to 9 weeks) were dissected under anesthesia with pentobarbital sodium and the common bile duct was ligated. Loops were prepared from the stomach, duodenum, jejunum, ileum and colon. 0.2 mL each of an isotonic solution (500 μg/mL) of imidafenacin was injected into the loops in […]. After 1 hour, the lumen of the loops was washed sequentially with water and 0.01 mol/L hydrochloric acid and the wash was collected from each loop. The concentration of imidafenacin in the wash was determined by high performance liquid chromatography. The standard curve was determined by applying the least squares method to the ratio of the peak areas between the imidafenacin concentration for a similarly treated standard specimen and the concentration of internal standard of imidafenacin determined by chromatography. The concentration of imidafenacin in the wash for a specimen was determined by substituting the ratio of the peak area into the standard curve. The absorption of imidafenacin for each loop was calculated by the equations (1) and (2) below. The results are shown in FIG. 5. % Remaining imidafenacin in a loop=(Conc. of imidafenacin in the wash for the loop)×25 (1) % Absorption of imidafenacin in a loop=100-% Remaining imidafenacin in that loop (2)

Cc1nccn1CCC(C(N)=O)(c1ccccc1)c1ccccc1 [imidafenacin, 4-(2-methyl-1-imidazolyl)-2,2-diphenylbutylamide]
absorption of imidafenacin in colon loop: Some absorption
absorption of imidafenacin in small intestine loops (duodenum, jejunum, ileum): effectively absorbed
absorption of imidafenacin in stomach loop: less significant
